How the values were obtained:
Format in all cases: in vivo
Avena = experiment: Herbicidal action before emergence of the plants (pre-emergent action); conditions: 2000 g of active substance/ha, sprayed immediately after sowing, evaluated after 3 weeks, ratings scale of nine levels (1=complete damage, 9=no action)
Method: (§1) Monocotyledon and dicotyledon test plants are sown in standard soil in plastic pots. Immediately after sowing, the test substances are sprayed on (500 l of water/ha) in an aqueous suspension prepared from a 25% wettable powder (Example F3, b)), corresponding to a dosage of 2000 g of active substance/ha. The test plants are then grown under optimum conditions in a greenhouse. After a test period of 3 weeks, the test is evaluated with a ratings scale of nine levels (1=complete damage, 9=no action). Ratings of 1 to 4 (in particular 1 to 3) mean a good to very good herbicidal action.
(§2) Test plants: Avena, Setaria, Sinapis, Stellaria

Setaria = experiment: as above; set-up: key: 1=complete damage; 9=no action; Ratings of 1 to 4 (in particular 1 to 3) mean a good to very good herbicidal action; conditions: 2000 g of active substance/ha, sprayed immediately after sowing, evaluated after 3 weeks, ratings scale of nine levels
Method: as §1, §2

Sinapis [1] = experiment: as above; set-up: key: 1=complete damage; 9=no action; Ratings of 1 to 4 (in particular 1 to 3) mean a good to very good herbicidal action; conditions: 2000 g of active substance/ha, sprayed immediately after sowing, evaluated after 3 weeks, ratings scale of nine levels
Method: as §1, §2

Stellaria [2] = experiment: as above; set-up: key: 1=complete damage; 9=no action; Ratings of 1 to 4 (in particular 1 to 3) mean a good to very good herbicidal action; conditions: 2000 g of active substance/ha, sprayed immediately after sowing, evaluated after 3 weeks, ratings scale of nine levels
Method: as §1, §2

Sinapis [3] = experiment: Post-emergent herbicidal action (contact herbicide); set-up: key: 1=complete damage; 9=no action; Ratings of 1 to 4 (in particular 1 to 3) mean a good to very good herbicidal action; conditions: 2000 g of active substance/ha, sprayed in the 4- to 6-leaf stage, evaluated after about 18 days, ratings scale 1-9
Method: (§3) Monocotyledon and dicotyledon test plants are grown in plastic pots with standard soil in a greenhouse and, in the 4- to 6-leaf stage, are sprayed with an aqueous suspension of the test substances of the formula 1, prepared from a 25% wettable power (Example F3, b)), corresponding to a dosage of 2000 g of active substance/ha (500 l of water/ha). The test plants are then grown further in the greenhouse under optimum conditions. After a test period of about 18 days, the test is evaluated with a ratings scale of 9 levels (1=complete damage, 9=no action). Ratings of 1 to 4 (in particular 1 to 3) mean a good to very good herbicidal action.
(§4) Test plants: Sinapis, Stellaria

Stellaria [4] = experiment: as above; set-up: key: 1=complete damage; 9=no action; Ratings of 1 to 4 (in particular 1 to 3) mean a good to very good herbicidal action; conditions: 2000 g of active substance/ha, sprayed in the 4- to 6-leaf stage, evaluated after about 18 days, ratings scale 1-9
Method: as §3, §4

| Structure (SMILES) | Pre-emergent action, rating, Avena (Avena) | Pre-emergent action, rating, Setaria (Setaria) | Pre-emergent action, rating, Sinapis (Sinapis [1]) | Pre-emergent action, rating, Stellaria (Stellaria [2]) | Post-emergent action, rating, Sinapis (Sinapis [3]) | Post-emergent action, rating, Stellaria (Stellaria [4]) |
| --- | --- | --- | --- | --- | --- | --- |
| C[Si](C)(C)COS1=NC(N)=NC(Oc2c(F)c(F)c(F)c(F)c2F)=N1 (stereo not shown) [5.321] | 3 | 1 | 1 | 1 | 2 | 2 |
| NC1=NC(Oc2cc(F)ccc2F)=NS(N2CCc3ccccc3CC2)=N1 (stereo not shown) [6.164] | – | – | – | – | 1 | 3 |
| NC1=NC(Oc2c(F)c(F)c(F)c(F)c2F)=NS(N2CCc3ccccc3CC2)=N1 (stereo not shown) [6.200] | 4 | 1 | 1 | 1 | 2 | 2 |
| CC1(C)CC2CC(C)(CN2S2=NC(N)=NC(Oc3c(F)c(F)c(F)c(F)c3F)=N2)C1 (single isomer, unassigned) [6.153] | 4 | 3 | 1 | 1 | 1 | 2 |
| CC1CCCC(OS2=NC(N)=NC(Oc3c(F)c(F)c(F)c(F)c3F)=N2)C1 (stereo not shown) [5.317] | 4 | 2 | 2 | 1 | – | – |
| CC12CCCCC1N(S1=NC(N)=NC(Oc3c(F)c(F)c(F)c(F)c3F)=N1)CCC2 (stereo not shown) [6.181] | – | – | – | – | 2 | 3 |
| NC1=NC(Oc2c(F)c(F)c(F)c(F)c2F)=NS(N2CC[C@H]3CCC[C@H]32)=N1 (relative stereo) [6.10] | 4 | 4 | 1 | 1 | – | – |
| CN(C1CCCCC1)S1=NC(N)=NC(Oc2c(F)c(F)c(F)c(F)c2F)=N1 (stereo not shown) [6.7] | – | – | – | – | 2 | 3 |
| NC1=NC(Oc2c(F)c(F)c(F)c(F)c2F)=NS(N2CCCC3CCCCCCC32)=N1 (stereo not shown) [6.102] | – | – | – | – | 2 | 3 |
| NC1=NC(Oc2c(F)c(F)c(F)c(F)c2F)=NS(N2CCCCC2)=N1 (stereo not shown) [6.53, 3-amino-5-pentafluorophenoxy-1-(piperidin-1-yl)thiatriazine] | 3 | 3 | 1 | 1 | – | – |
| CC1CCN(S2=NC(Oc3cc(F)ccc3F)=NC(N)=N2)CC(C)(C)C1 (stereo not shown) [6.249] | – | – | – | – | 1 | 2 |
| CC1CCCC(OS2=NC(N)=NC(Oc3c(F)c(F)c(F)c(F)c3F)=N2)C1 (stereo not shown) [5.141] | – | – | – | – | 2 | 4 |
| CC1CC(C)CN(S2=NC(N)=NC(Oc3cc(F)ccc3F)=N2)C1 (stereo not shown) [6.23] | – | – | – | – | 2 | 4 |
| CCCN(CCC)S1=NC(N)=NC(Oc2c(F)c(F)c(F)c(F)c2F)=N1 (stereo not shown) [6.21] | – | – | – | – | 2 | 4 |
| NC1=NC(Oc2cc(F)ccc2F)=NS(N2CCCCCC2)=N1 (stereo not shown) [6.57] | – | – | – | – | 2 | 4 |
| NC1=NS(N2CCCCCCCCCCCC2)=NC(Oc2c(F)c(F)c(F)c(F)c2F)=N1 (stereo not shown) [6.177] | – | – | – | – | 2 | 2 |
| CC1CCC(OS2=NC(N)=NC(Oc3c(F)c(F)c(F)c(F)c3F)=N2)CC1 (stereo not shown) [5.327] | 4 | 3 | 2 | 1 | – | – |
| CC1N(S2=NC(N)=NC(Oc3c(F)c(F)c(F)c(F)c3F)=N2)CCCC1(C)C (stereo not shown) [6.90] | – | – | – | – | 2 | 4 |

| Structure (SMILES) | Pre-emergent action, rating, Avena (Avena) | Pre-emergent action, rating, Setaria (Setaria) | Pre-emergent action, rating, Sinapis (Sinapis [1]) | Pre-emergent action, rating, Stellaria (Stellaria [2]) | Post-emergent action, rating, Sinapis (Sinapis [3]) | Post-emergent action, rating, Stellaria (Stellaria [4]) |
| --- | --- | --- | --- | --- | --- | --- |
| CC1(C)CC(OS2=NC(N)=NC(Oc3c(F)c(F)c(F)c(F)c3F)=N2)CC(C)(C)C1 (stereo not shown) [5.146] | 4 | 1 | 1 | 1 | – | – |
| NC1=NC(Oc2c(F)c(F)c(F)c(F)c2F)=NS(N2CCN(c3ccccc3)CC2)=N1 (stereo not shown) [6.77] | 4 | 3 | 1 | 1 | – | – |
| CCC(C)(C)C1CCC(OS2=NC(N)=NC(Oc3c(F)c(F)c(F)c(F)c3F)=N2)CC1 (stereo not shown) [5.59] | – | – | – | – | 1 | 3 |
| CC1CCCC(OS2=NC(N)=NC(Oc3cc(F)ccc3F)=N2)C1 (stereo not shown) [5.318] | – | – | – | – | 2 | 4 |
| NC1=NC(Oc2cc(F)ccc2F)=NS(N2CC[C@H]3CCCC[C@H]32)=N1 (relative stereo) [6.120] | – | – | – | – | 2 | 4 |
| NC1=NC(OCC(Cl)(Cl)C(F)(F)F)=NS(OCCCl)=N1 (stereo not shown) [5.337] | – | – | – | – | 1 | 5 |
| CC1(C)C2CCC1(C)C(OS1=NC(N)=NC(Oc3c(F)c(F)c(F)c(F)c3F)=N1)C2 (stereo not shown) [5.154] | – | – | – | – | 2 | 4 |
| CC1CC(OS2=NC(N)=NC(Oc3c(F)c(F)c(F)c(F)c3F)=N2)CC(C)(C)C1 (stereo not shown) [5.86] | 5 | 3 | 1 | 1 | – | – |
| CC(C)N(C(C)C)S1=NC(Oc2c(F)c(F)c(F)c(F)c2F)=NC(N)=N1 (stereo not shown) [6.247] | – | – | – | – | 3 | 4 |
| NC1=NS(N2CCC3CCCCC3CC2)=NC(Oc2c(F)c(F)c(F)c(F)c2F)=N1 (stereo not shown) [6.283] | – | – | – | – | 1 | 4 |
| NC1=NC(Oc2c(F)c(F)c(F)c(F)c2F)=NS(OCC23CC4CC(CC(C4)C2)C3)=N1 (stereo not shown) [5.85] | – | – | – | – | 3 | 3 |
| CC1CC(NS2=NC(N)=NC(Oc3c(F)c(F)c(F)c(F)c3F)=N2)CC(C)(C)C1 (stereo not shown) [6.168] | – | – | – | – | 2 | 3 |
| CC(C)(C)C1CCC(OS2=NC(N)=NC(Oc3c(F)c(F)c(F)c(F)c3F)=N2)CC1 (stereo not shown) [5.316] | – | – | – | – | 2 | 4 |
| NC1=NS(N2CC3CCC(CC3)C2)=NC(Oc2cc(F)ccc2F)=N1 (stereo not shown) [6.81] | – | – | – | – | 2 | 3 |
| NC1=NS(N2CCCCCCCCCC2)=NC(Oc2c(F)c(F)cc(F)c2F)=N1 (stereo not shown) [6.320] | – | – | – | – | 2 | 3 |
| CC1CCC(C)N1S1=NC(N)=NC(Oc2c(F)c(F)c(F)c(F)c2F)=N1 (stereo not shown) [6.63] | 4 | 3 | 1 | 1 | – | – |
| NC1=NC(Oc2c(F)c(F)c(F)c(F)c2F)=NS(NC2CCCCC2)=N1 (stereo not shown) [6.17] | – | – | – | – | 3 | 4 |
| NC1=NC(Oc2c(F)c(F)c(F)c(F)c2F)=NS(N2CC[C@H]3CCC[C@H]32)=N1 (relative stereo) [6.6] | – | – | – | – | 2 | 4 |

Reference: patent US6362134B1, “Herbicidal 1,2,4,6-thiatriazines” (Syngenta Investment Corporation, priority 1996, dated 2002)
